Results on 1 compound are retold here after patent publication US8173654B2, “Triazolopyridazine compounds” (Janssen Pharmaceutica N.V., priority 2005, dated 2012).

By IC50 is commonly meant the concentration at which inhibition is half-maximal. Low values mean greater potency in that assay, high ones weaker potency in that assay.

The subject of one experiment is HepG2 cells. The experiment is described as follows: HepG2 cellular scatter assay (HGF-induced, RT-CES impedance). The following applies: Homo sapiens, 40 ng/ml HGF. The class given is cell-based. From the text:
Human Growth Factor (HGF) and its receptor (c-Met) are involved in cellular motility. Indeed HGF was also identified as Scatter Factor (SF), based on its powerful motility effect on certain cell types. Cellular motility is critical for pathological processes of oncologic disease, most importantly, the establishment of metastatic lesions distant from the primary tumor and formation of new blood vessels (angiogenesis). One therapeutic hypothesis is that this movement of cell types may be blunted or eliminated by the use of c-Met kinase inhibitors. (See: Jiang, W. C, Martin, T. A., Parr, C., Davies, G., Matsumoto, K. and Nakamura, T. Critical Reviews in Oncology/Hematology 53 (2005) 35-69. and references cited therein.) It should also be noted that cellular motility, especially with regard to angiogenesis, is important in other disease states.
Cellular scatter was measured with a Real-Time Cell Electronic Sensing system (RT-CES), from ACEA Biosciences Inc. (San Diego, Calif.). The RT-CES system uses specialized RT-ACE microtiter plates (cat:RCD96, ACEA Biosciences Inc.) to non-invasively quantify cellular status in real-time. The interaction of cells with the surface of the plates, which are integrated with microelectronic sensor arrays, leads to the generation of a cell-electrode impedance response. A higher impedance value indicates more cell attachment and thus less cellular scatter.
50 μl of Assay Media (MEM supplemented with 10% FBS, 2 mM L-glutamine, 1.5 g/L sodium bicarbonate, 1 mM sodium pyruvate, and 0.1 mM non-essential amino acids) was added into 96-well RT-ACE plates and recorded for 30 min on the RT-CES. 50 μl of HepG2 cells (cat: HB-8065, ATCC) were added into each well ([…]). The plate was read in RT-CES and incubated for 20-24 hours. After the 20-24 hours incubation, 50 μl of Assay Media containing different concentrations of testing compounds was added into each well and incubated for 1 hour. Finally, 50 μl of Assay Media containing 160 ng/ml of HGF was added into each well (40 ng/ml in 200 μl). The plate was incubated and read in the RT-CES for 20-24 hours, with a record time every 15 minutes. The positive control was HGF without compounds and negative control was no-HGF without compound. All determinations were performed in duplicate wells and IC50 values were calculated using GraphPad Prism software (GraphPad Software; San Diego, Calif.).

Experiment [1] has as its system U87MG glioblastoma tumors. The experiment is described as follows: U87MG glioblastoma tumor xenograft model (tumor growth inhibition). The class given is in vivo, athymic nude mice. The method, then: The U87MG glioblsatoma cell line (Piedmont Research Center LLC) expresses the c-Met receptor and responds to Human Growth Factor (HGF). This study investigated whether treatment with an inhibitor of c-Met is efficacious against the U87MG glioblastoma tumor xenograft model. This study utilized a tumor growth inhibition (TGI) assay to test per os (p.o.) compound monotherapy in groups of fifteen nude mice. A control group was treated with vehicle, 20% Hydroxypropyl Beta-Cyclodextrin (HPBCD). All treatments began on Day 1 (D1) in mice bearing established subcutaneous (s.c.) U87MG tumors.
Female athymic nude mice (Harlan) were 10-11 weeks old with a BW range of 18.1-25.0 g on D1 of the study. The animals were fed ad libitum water (reverse osmosis, 1 ppm Cl) and NIH 31 Modified and Irradiated Lab Diet® consisting of 18.0% crude protein, 5.0% crude fat, and 5.0% crude fiber. The mice were housed on irradiated ALPHA-dri® Bed-o-cobs® Laboratory Animal Bedding in static microisolators on a 12-hour light cycle at 21-22° C. (70-72° F.) and 40-60% humidity. All animals were housed in a Laboratory Animal Medicine facility that is fully accredited by the American Association for Assessment and Accreditation of Laboratory Animal Care (AAALAC). All procedures involving animals were conducted in compliance with the NIH Guide for the Care and Use of Laboratory Animals and all protocols were approved by an Internal Animal Care and Use Committee (IACUC).
Xenografts were initiated from U87MG human glioblastoma tumor fragments maintained by serial transplantation in athymic nude mice. Each test mouse received a subcutaneous U87MG tumor fragment (1 mm^3) implanted in the right flank, and the growth of tumors was monitored as the average size approached 200 mm^3. Twelve days later, on Day 1 of the study, the animals were sorted into 4 groups (n=12-15 mice/group) with individual tumor volumes ranging from 172-352 mm^3 and group mean tumor volumes of 216 mm^3. Tumor volume was calculated using the formula:
[formula] where w=width and l=length in mm of the tumor. Tumor weight may be estimated with the assumption that 1 mg is equivalent to 1 mm^3 of tumor volume. Drug Treatment
Dosing solutions of compounds of the present invention were prepared fresh weekly in a vehicle consisting of 20% Hydroxypropyl Beta-Cyclodextrin (HPBCD) in water. In all groups, the dosing volume of 0.2 mL/20-g mouse was scaled to the body weight of each animal. Doses were given to allow for the HCl salt form of the compound.
TGI was calculated from the difference between the median tumor volumes of vehicle-treated and drug-treated mice, expressed as a percentage of the median tumor volume of the vehicle-treated control group, by the following relation:
The MTV (n) is defined as the median tumor volume (MTV) for the number of animals, n, remaining in the study on that day.
Animals were weighed daily for the first five days of the study and then twice weekly. The mice were examined frequently for overt signs of any adverse, drug-related side effects, and clinical signs of toxicity were recorded when observed. Acceptable toxicity is defined as a group mean body-weight (BW) loss of less than 20% during the study, and not more than one treatment-related (TR) death among ten animals. A death is classified as TR if it is attributable to treatment side effects as evidenced by clinical signs and/or necropsy, or due to unknown causes during the dosing period or within 10 days of the last dose. A death is classified as non treatment-related (NTR) if there is no evidence that the death was related to drug side effects. A death is classified as non treatment-related unknown (NTRu) if the cause of death is unknown.
The Mann-Whitney U-test, for analysis of medians, was used to determine the statistical significance of the difference between the MTVs. Prism 3.03 (GraphPad) for Windows was used for the statistical analyses and graphic presentations. […]

`Cn1cc(-c2ccc3nnc(C(F)(F)c4ccc5ncccc5c4)n3n2)cn1` [Example 61, 6-{Difluoro-[6-(1-methyl-1H-pyrazol-4-yl)-[1,2,4]triazolo[4,3-b]pyridazin-3-yl]-methyl}-quinoline]: the IC50 with HepG2 cells was 106 nM. Further, the “decrease of mean tumor volume” value in experiment [1] (25 mg/kg p.o., q.d. on day 1 and b.i.d. to day 12, Day 12, p<0.01) stood at 94%; in experiment [1] (50 mg/kg p.o., b.i.d. for 7 days, 24-hr pause, then q.d. to day 12, Day 12, p<0.01), 96%; in experiment [1] (75 mg/kg p.o., b.i.d. for 7 days, 24-hr pause, then q.d. to day 12, Day 12, p<0.01), 97%. Besides, the tumor regression result in experiment [1] (25, 50 and 75 mg/kg p.o., 12 days) was “Tumor regression was also observed with all three doses”. In experiment [1] (25, 50 and 75 mg/kg p.o., 12 days, p<0.01), the “tumor growth inhibition of U87MG tumors” value is recorded as “statistically significant, tumor growth inhibition”.
